37 compounds from US8410163B2, “Substituted 4-amino-5-benzoyl-2-(phenylamino)thiophene-3-carbonitriles and substituted 4-amino-5-benzoyl-2-(phenylamino)thiophene-3-carboxamides as tubulin polymerization inhibitors” (Telik, Inc., priority 2009, dated 2013) can be followed below.

Experiment [1] concerns OVCAR-3 (human ovarian carcinoma). Briefly: Cytotoxicity assay (CellTiter-Glo), OVCAR-3. The class given is cell-based. The following applies: 72 h, OVCAR-3 cells, three days culture, rounded to 1 significant figure. As to the method:
(§1) The cell lines A549 (human lung adenocarcinoma), OVCAR-3 (human ovarian carcinoma), HL60 (human promyelocytic leukemia), DLD1 (human colon adenocarcinoma) and HCT116 (human colon carcinoma) were obtained from the American Type Culture Collection, Manassas, Va., U.S.A. All products were used in accordance with manufacturer's directions. The histone phosphorylation (p-H3) assay was conducted in duplicate and the cytotoxicity assays were conducted in triplicate, in each case with solvent control.
(§2) Log-phase cells were trypsinized, collected by centrifugation, and resuspended in a small volume of fresh medium, and the density of viable cells was determined following Trypan Blue staining. Cells were diluted in fresh media, the test compounds (concentrations between 0.1 μM and 200 μM, dissolved in DMSO, 50 μL) added immediately after dilution to achieve a final DMSO concentration of 0.5%, then the suspensions added at 150 μL/well to 96-well plates, and incubated overnight to allow attachment in the case of adherent cells. The cells were cultured for three days (about three doubling times). The cells were then collected by centrifugation, and 100 μL of the culture supernatant was replaced by the CellTiter-Glo reagent. After incubation for 15 minutes at room temperature, the plate was read with a luminometer. […] The table gives cytotoxicity IC50s in μM, rounded to 1 significant figure.

For experiment [2], the system named is HL60 (human promyelocytic leukemia) xenograft. Kind of experiment: HL60 xenograft assay, oral administration. The following applies: Mus musculus, HL-60, po, nu/nu mice, 200 mg/Kg by gavage once/day days 1-5 and 8-10, measured the day after the last day of treatment (In vivo Example 3), read-out: inhibition of tumor growth compared to vehicle. The class given is in vivo. How it is done: Male athymic nu/nu mice, 6-8 weeks old (about 20 g), were implanted subcutaneously in the right fore flank with about 1×10^7 cells of the HL60 (human promyelocytic leukemia) line that had been grown in antibiotic-free medium for at least two passages. About 6 days after tumor implantation, when the tumor weight was about 50-250 mg, the mice were assigned to treatment groups. Test compounds were suspended at 20 mg/mL in 0.55 wt. % aqueous carboxymethylcellulose. Groups of mice were treated with compounds 2A, 9A, and 12A at 200 mg/Kg by gavage once/day on days 1-5 and 8-10 from the start of treatment, with vehicle control. Tumor growth inhibition was measured on the last day of treatment.
The experiment was conducted generally as described in In vivo Example 1. Groups of mice were treated with compounds 5A, 6A, 7A, 8A, and 10A at 200 mg/Kg by gavage once/day on days 1-5 and 8-10 from the start of treatment, with vehicle control. Tumor growth inhibition was measured the day after the last day of treatment.

Experiment [3] relates to A549 (human lung adenocarcinoma). Briefly: Cytotoxicity assay (CellTiter-Glo), A549. The class given is cell-based. The following applies: 72 h, A549 cells, three days culture, rounded to 1 significant figure. As to the method:
as §1, §2
Background: ATP-based viability assays read luminescence as a measure of living cells.

The test system of experiment [4] is DLD1 (human colon adenocarcinoma). Briefly: Cytotoxicity assay (CellTiter-Glo), DLD1. In kind it is cell-based. As to conditions: DLD-1, 72 h, DLD1 cells, three days culture, rounded to 1 significant figure. How it is done:
as §1, §2

Experiment [5] deals with HL60 (human promyelocytic leukemia). Kind of experiment: Cytotoxicity assay (CellTiter-Glo), HL-60. As to conditions: 72 h, HL-60 cells, three days culture, rounded to 1 significant figure. The class given is cell-based. How it is done:
as §1, §2

For experiment [6], the system named is HCT116 (human colon carcinoma). Kind of experiment: Cytotoxicity assay (CellTiter-Glo), HCT116. The class given is cell-based. As to conditions: HCT-116, 72 h, HCT116 cells, three days culture, rounded to 1 significant figure. How it is done: as §1, §2
In experiment [7] the test system is P388 and P388/ADR (doxorubicin-resistant) cells. Kind of experiment: Cross-resistance, cytotoxicity in P388 and P388/ADR cells. The class given is cell-based, mouse. As to conditions: cytotoxicity in P388/ADR (doxorubicin-resistant) versus P388 cells. As to the method: Compounds 2A, 9A, and 12A were tested for cross-resistance in the P388 (mouse leukemia) cell line, by assaying its cytotoxicity in both P388 and P388/ADR (doxorubicin-resistant) cells. […] Several of the more cytotoxic compounds of formula A were tested and found not to be substrates for P-glycoprotein, an efflux pump commonly associated with multidrug-resistance in cancer cells.

A further experiment deals with tubulin. Briefly: Inhibition of tubulin polymerization, cell-free fluorescence assay. The class given is biochemical.

In the case of `COc1ccc(Nc2sc(C(=O)c3ccc(Cl)cc3)c(N)c2C#N)cc1OC` [Compound 5A], the IC50 in experiment [1], in experiment [3], in experiment [4], in experiment [5] and in experiment [6] was 20 nM throughout. Besides, the inhibition in vivo at 200 mg/kg in experiment [2] was found to be 45%.

In turn, `CN(C)CCOc1ccc(Nc2sc(C(=O)c3ccc(Cl)cc3)c(N)c2C#N)cc1` [Compound 36A] yielded an IC50 in experiment [3] of 1000 nM. Turning to `COc1cccc2c1C(=O)c1c(O)c3c(c(O)c1C2=O)C[C@@](O)(C(=O)CO)C[C@@H]3O[C@H]1C[C@H](N)[C@H](O)[C@H](C)O1` [doxorubicin], in experiment [7], the resistance ratio came out at 260 fold. For `N#Cc1c(Nc2ccc3c(c2)OCO3)sc(C(=O)c2ccc(Br)cc2)c1N` [Compound 23A], the IC50 in experiment [3] amounted to 300 nM. The compound `COc1ccc(C(=O)c2sc(Nc3ccc(OC)c(OC)c3)c(C#N)c2N)cc1` [Compound 28A] yielded an IC50 in experiment [3] of 700 nM. Turning to `COc1ccc(C(=O)c2sc(Nc3ccc4c(c3)OCO4)c(C#N)c2N)cc1OC` [Compound 16A], the IC50 amounted to 100 nM in experiment [3] and 60 nM in experiment [5]. In experiment [3], `N#Cc1c(Nc2ccc(C(F)(F)F)cc2)sc(C(=O)c2ccc(Cl)cc2)c1N` [Compound 31A] registered an IC50 of 1000 nM. This lies in the single-digit micromolar range. Take `CCOc1ccc(Nc2sc(C(=O)c3ccc(OC)cc3OC)c(N)c2C#N)cc1` [Compound 6A, 4-amino-5-(2,4-dimethoxybenzoyl)-2-[(4-ethoxyphenyl)amino]thiophene-3-carbonitrile]: the inhibition in vivo at 200 mg/kg in experiment [2] came out at 89%. The concentration for half-maximal inhibition (IC50) in experiment [3] was determined as 30 nM; in experiment [5] it was 50 nM; in experiment [6] it was 30 nM. `CCOc1ccc(Nc2sc(C(=O)c3ccc(OC)cc3)c(N)c2C#N)cc1` [Compound 17A]: the IC50 in experiment [3] and in experiment [5] was 100 nM each time.

Turning to `CCN(CC)c1ccc(C(=O)c2sc(Nc3ccc(OC)cc3OC)c(C#N)c2N)cc1` [Compound 26A], half-maximal inhibition in experiment [3] (IC50) was put at 500 nM. Take `N#Cc1c(Nc2ccc3c(c2)OCO3)sc(C(=O)c2ccc(Cl)cc2)c1N` [Compound 24A]: the values for the IC50 in experiment [3] and in experiment [5] were 300 nM and 80 nM, respectively. Consider `CCOc1ccc(Nc2sc(C(=O)c3ccc(Cl)cc3)c(N)c2C#N)cc1` [Compound 4A], for which the IC50 is 30 nM in experiment [1]; 20 nM in experiment [3]; 30 nM in experiment [4]; 40 nM in experiment [5]; 90 nM in experiment [6]. Regarding `CC[C@]1(O)C[C@@H]2CN(CCc3c([nH]c4ccccc34)[C@@](C(=O)OC)(c3cc4c(cc3OC)N(C)[C@H]3[C@@](O)(C(=O)OC)[C@H](OC(C)=O)[C@]5(CC)C=CCN6CC[C@]43[C@@H]65)C2)C1` [vinblastine], the resistance ratio in experiment [7] is on record as 50 fold. As for `COc1cccc(C(=O)c2sc(Nc3ccc4c(c3)OCO4)c(C#N)c2N)c1` [Compound 25A], in experiment [3], half-maximal inhibition (IC50) was put at 500 nM.

The compound `N#Cc1cccc(C(=O)c2sc(Nc3ccc4c(c3)OCO4)c(C#N)c2N)c1` [Compound 34A] gave a 50% inhibitory concentration (IC50) in experiment [3] of 1000 nM. The compound `Cc1ccc(C(=O)c2sc(Nc3ccc4c(c3)OCO4)c(C#N)c2N)cc1` [Compound 19A] displayed an IC50 in experiment [3] of 200 nM.

As to `N#Cc1ccc(C(=O)c2sc(Nc3ccc4c(c3)OCO4)c(C#N)c2N)cc1` [Compound 20A], in experiment [3], the IC50 turned out to be 200 nM.

Turning to `NC(=O)c1c(Nc2ccc3c(c2)OCO3)sc(C(=O)c2ccc(Cl)cc2)c1N` [Compound 27A, 4-amino-2-(1,3-benzodioxol-5-ylamino)-5-(4-chlorobenzoyl)thiophene-3-carboxamide], the IC50 came to 300 nM in experiment [1], 600 nM in experiment [3], 200 nM in experiment [5] and 600 nM in experiment [6].

Regarding `COc1ccc(Nc2sc(C(=O)c3ccc(Cl)cc3)c(N)c2C(N)=O)cc1` [Compound 1A, 4-amino-5-(4-chlorobenzoyl)-2-[(4-methoxyphenyl)amino]thiophene-3-carboxamide], the IC50 stood at 10 nM in experiment [1]; 10 nM in experiment [3]; 7 nM in experiment [4]; 10 nM in experiment [5]; 10 nM in experiment [6]. For the compound `Cc1ccc(Nc2sc(C(=O)c3ccc(Cl)cc3)c(N)c2C#N)cc1` [Compound 14A], the concentration for half-maximal inhibition (IC50) was 100 nM in experiment [3], 70 nM in experiment [5] and 80 nM in experiment [6]. Moreover, in the experiment with tubulin, the “inhibition of tubulin polymerization (cell-free)” value was “inhibition of tubulin polymerization”. `COc1ccc(C(=O)c2sc(Nc3ccc(OC)cc3OC)c(C#N)c2N)cc1` [Compound 32A] had an IC50 in experiment [3] of 1000 nM. In the case of `CCOc1ccc(Nc2sc(C(=O)c3ccc(Cl)cc3)c(N)c2C(N)=O)cc1` [Compound 13A], the IC50 in experiment [3] was 60 nM; in experiment [5], 30 nM. As for `N#Cc1c(Nc2ccc3c(c2)OCO3)sc(C(=O)c2cccc(Br)c2)c1N` [Compound 41A], the IC50 in experiment [3] was found to be 2000 nM. In other words, the single-digit micromolar range. Same read-out and setting: the value for `COc1ccc(Nc2sc(C(=O)c3ccc(OC)cc3OC)c(N)c2C#N)c(OC)c1` [Compound 22A] was 200 nM. In the case of `COc1ccc(C(=O)c2sc(Nc3ccc4c(c3)OCO4)c(C#N)c2N)cc1` [Compound 10A], the IC50 in experiment [1] amounted to 40 nM; in experiment [3] it was 40 nM; in experiment [4] it was 30 nM; in experiment [5], 40 nM. Besides, the inhibition in vivo at 200 mg/kg in experiment [2] was found to be 67%. As to `COC(=O)c1ccc(Nc2sc(C(=O)c3ccc(Cl)cc3)c(N)c2C#N)cc1` [Compound 30A], in experiment [3], the concentration for half-maximal inhibition (IC50) came to 1000 nM. Consider `N#Cc1c(Nc2ccc(F)cc2)sc(C(=O)c2ccc(Cl)cc2)c1N` [Compound 38A], for which the IC50 in experiment [3] is 2000 nM. This IC50 lies about 2-fold higher than the previous one.

In turn, `N#Cc1c(Nc2ccc3c(c2)OCO3)sc(C(=O)c2cccc(Cl)c2)c1N` [Compound 35A] gave an IC50 in experiment [3] of 1000 nM. Compared with the last compound, the IC50 is about 2-fold lower. For `COc1cc2c(c(OC)c1OC)-c1ccc(OC)c(=O)cc1[C@@H](NC(C)=O)CC2` [colchicine], the resistance ratio in experiment [7] was 70 fold.

`CC(C)c1ccc(Nc2sc(C(=O)c3ccc(Cl)cc3)c(N)c2C#N)cc1` [Compound 29A] had an IC50 in experiment [3] of 800 nM. That is a sub-micromolar value.

In turn, `N#Cc1c(Nc2ccc([N+](=O)[O-])cc2)sc(C(=O)c2ccc(Cl)cc2)c1N` [Compound 37A] yielded an IC50 in experiment [3] of 2000 nM. As to `COc1ccc(Nc2sc(C(=O)c3ccc(OCCN(C)C)cc3)c(N)c2C#N)cc1` [Compound 39A], it took 2000 nM to reach half-maximal inhibition in experiment [3] (IC50). `CCN(CC)c1ccc(C(=O)c2sc(Nc3ccc(OC)c(OC)c3)c(C#N)c2N)cc1` [Compound 11A] yielded an IC50 in experiment [3] of 50 nM. Compared with the last compound, the IC50 is about 40-fold lower. On to `COc1ccc(Nc2sc(C(=O)c3ccc(OC)cc3)c(N)c2C(N)=O)cc1` [Compound 8A], for which the IC50 stood at 10 nM in experiment [1], 40 nM in experiment [3], 7 nM in experiment [4] and 30 nM in experiment [5]. The inhibition in vivo at 200 mg/kg in experiment [2] was 10%. On to `COc1ccccc1C(=O)c1sc(Nc2ccc3c(c2)OCO3)c(C#N)c1N` [Compound 21A], for which, in experiment [3], half-maximal inhibition (IC50) was put at 200 nM. In addition, the “inhibition of tubulin polymerization (cell-free)” value in the experiment on tubulin is given as “inhibition of tubulin polymerization”.

As for `COc1ccc(Nc2sc(C(=O)c3ccc(Br)cc3)c(N)c2C#N)cc1` [Compound 3A], the IC50 in experiment [3] turned out to be 20 nM. The same measure, in the same setting: the value for `N#Cc1c(Nc2ccc3c(c2)OCO3)sc(C(=O)c2ccc(F)cc2)c1N` [Compound 33A] was 1000 nM.

A word on the IC50: it is the concentration that gives 50% inhibition.
